5 molecules from ChEMBL document CHEMBL3045542, “A quantitative structure-activity relationship study of herbicidal analogues of alpha-hydroxy-substituted 3-benzylidenepyrrolidene-2,4-diones” (2006) can be followed below.

Common to all, as to format: functional
Experiment [1] has as its system Echinochloa crus-galli. Kind of experiment: Herbicidal activity against Echinochloa crus-galli (barnyard grass) assessed as inhibition of plant growth at 10 ug/mL by cup test.
In experiment [2] the test system is Digitaria sanguinalis. Kind of experiment: Herbicidal activity against Digitaria sanguinalis (hairy crabgrass) assessed as inhibition of plant growth at 375 g/ha applied as pre-emergence treatment. To be noted: for inhibition at 375 g/ha: Digitaria sanguinalis, pre-emergence.
The subject of experiment [3] is Echinochloa crus-galli. Kind of experiment: Herbicidal activity against Echinochloa crus-galli (barnyard grass) assessed as inhibition of plant growth at 750 g/ha applied as pre-emergence treatment. To be noted: for inhibition at 750 g/ha: Echinochloa crus-galli, pre-emergence.
Experiment [4] relates to Digitaria sanguinalis. Put plainly: Herbicidal activity against Digitaria sanguinalis (hairy crabgrass) assessed as inhibition of plant growth at 750 g/ha applied as pre-emergence treatment. The settings on record: for inhibition at 750 g/ha: Digitaria sanguinalis, pre-emergence.
Experiment [5] relates to Echinochloa crus-galli. Put plainly: Herbicidal activity against Echinochloa crus-galli (barnyard grass) assessed as inhibition of plant growth at 93.75 g/ha applied as pre-emergence treatment. To be noted: for inhibition at 93.75 g/ha: Echinochloa crus-galli, pre-emergence.
For experiment [6], the system named is Echinochloa crus-galli. Kind of experiment: Herbicidal activity against Echinochloa crus-galli (barnyard grass) assessed as inhibition of plant growth at 375 g/ha applied as pre-emergence treatment. To be noted: for inhibition at 375 g/ha: Echinochloa crus-galli, pre-emergence.
Experiment [7] relates to Digitaria sanguinalis. Kind of experiment: Herbicidal activity against Digitaria sanguinalis (hairy crabgrass) assessed as inhibition of plant growth at 93.75 g/ha applied as pre-emergence treatment. The settings on record: for inhibition at 93.75 g/ha: Digitaria sanguinalis, pre-emergence.
Experiment [8] concerns Digitaria sanguinalis. Kind of experiment: Herbicidal activity against Digitaria sanguinalis (hairy crabgrass) assessed as inhibition of plant growth at 187.5 g/ha applied as pre-emergence treatment. The settings on record: for inhibition at 187.5 g/ha: Digitaria sanguinalis, pre-emergence.
Experiment [9] relates to Echinochloa crus-galli. Kind of experiment: Herbicidal activity against Echinochloa crus-galli (barnyard grass) assessed as inhibition of plant growth at 187.5 g/ha applied as pre-emergence treatment. The settings on record: for inhibition at 187.5 g/ha: Echinochloa crus-galli, pre-emergence.

A word on the inhibition: it is the percentage by which the read-out fell short of the control. With `CCOc1ccc(/C(O)=C2\C(=O)CN(C(C)CC)C2=O)cc1` (stereo not given), the inhibition at 10 µg/mL in the experiment on Echinochloa crus-galli [1] stood at 78%. Besides, the values for the inhibition at 375 g/ha in the experiment on Digitaria sanguinalis [2] and with Echinochloa crus-galli [6] were 59% and 82%, respectively. The inhibition at 750 g/ha in the experiment on Echinochloa crus-galli [3] stood at 93%; with Digitaria sanguinalis [4], 96%. Moreover, the results for the inhibition at 93.75 g/ha in the experiment with Echinochloa crus-galli [5] and in the experiment with Digitaria sanguinalis [7] were 7% and 18%, respectively. In addition, the values for the inhibition at 187.5 g/ha in the experiment on Digitaria sanguinalis [8] and in the experiment with Echinochloa crus-galli [9] were 41% and 28%, respectively.

As for `CCOc1ccc(/C(O)=C2\C(=O)CN(C(C)C)C2=O)cc1`, the inhibition at 10 µg/mL with Echinochloa crus-galli [1] was 79%. For the same molecule, the “inhibition (INH)” value turned out to be 77% in the experiment on Digitaria sanguinalis [2]; 100% in the experiment on Echinochloa crus-galli [3]; 93% in the experiment on Digitaria sanguinalis [4]; 36% in the experiment on Echinochloa crus-galli [5]; 100% in the experiment with Echinochloa crus-galli [6]; 5% with Digitaria sanguinalis [7]. Further, the “inhibition (INH)” value stood at 66% in the experiment on Digitaria sanguinalis [8] and 95% with Echinochloa crus-galli [9].

For `COc1ccc(/C(O)=C2\C(=O)CN(C(C)C)C2=O)c(OC)c1`, in the experiment with Echinochloa crus-galli [1], the inhibition at 10 µg/mL worked out at 78%. The “inhibition (INH)” value in the experiment with Digitaria sanguinalis [2] is 95%; with Echinochloa crus-galli [3] it was 99%; in the experiment on Digitaria sanguinalis [4], 95%; in the experiment on Echinochloa crus-galli [5] it was 10%; with Echinochloa crus-galli [6], 94%; in the experiment with Digitaria sanguinalis [7], 20%. Besides, the “inhibition (INH)” value is recorded as 84% in the experiment with Digitaria sanguinalis [8] and 56% in the experiment with Echinochloa crus-galli [9].

`CCC(C)N1CC(=O)/C(=C(/O)c2ccc(OC)cc2OC)C1=O` (stereo not given): the inhibition at 10 µg/mL in the experiment with Echinochloa crus-galli [1] is 79%. For the same molecule, the inhibition at 375 g/ha is 63% in the experiment with Digitaria sanguinalis [2] and 76% in the experiment on Echinochloa crus-galli [6]. For the same molecule, the inhibition at 750 g/ha in the experiment with Echinochloa crus-galli [3] was 100%; in the experiment with Digitaria sanguinalis [4] it was 80%. Further, the inhibition at 93.75 g/ha turned out to be 13% in the experiment with Echinochloa crus-galli [5] and 0% with Digitaria sanguinalis [7]. Besides, the inhibition at 187.5 g/ha worked out at 4% in the experiment with Digitaria sanguinalis [8] and 14% in the experiment with Echinochloa crus-galli [9].

Take `C=CCOc1ccc(/C(O)=C2\C(=O)CN(C(C)C)C2=O)cc1`: the inhibition at 10 µg/mL in the experiment on Echinochloa crus-galli [1] was determined as 78%. Further, the inhibition at 375 g/ha in the experiment on Digitaria sanguinalis [2] was 74%; in the experiment on Echinochloa crus-galli [6], 95%. The inhibition at 750 g/ha with Echinochloa crus-galli [3] worked out at 100%; with Digitaria sanguinalis [4], 79%. In addition, the values for the inhibition at 93.75 g/ha in the experiment with Echinochloa crus-galli [5] and with Digitaria sanguinalis [7] were 30% and 0%, respectively. For the same molecule, the inhibition at 187.5 g/ha in the experiment on Digitaria sanguinalis [8] was 36%; in the experiment with Echinochloa crus-galli [9], 55%.
